Assay results taken from patent publication US11130752B2, “Aminopyrimidine compound” (Cardurion Pharmaceuticals, LLC, priority 2018, dated 2021).

The compounds below were run against T1, human CaMKIIδ (Homo sapiens, UniProt Q13557) (assay: In vitro CaMKII inhibitory activity (binding assay, TR-FRET)). Details: Table 4, GST-tagged human CaMKIIδ, activity ranks.
T1 construct: Full-length, glutathione-S-transferase(GST)-tagged, human CaMKIIδ was purchased from Carna Biosciences; purchased Carna Biosciences (CaMKIIδ); Wako Pure Chemical Industries (calmodulin) 02-111
Description: Evaluation of In Vitro CaMKII Inhibitory Activity (Binding Assay)
In vitro CaMKIIδ inhibitory activity was evaluated by a binding assay.
Full-length, glutathione-S-transferase(GST)-tagged, human CaMKIIδ was purchased from Carna Biosciences (product #02-111, Kobe, Japan). Full-length bovine calmodulin was purchased from Wako Pure Chemical Industries (Osaka, Japan). Terbium-labeled anti-GST antibody (Tb-anti-GST Ab) was purchased from Life Technologies (Carlsbad, Calif., USA). Boron-dipyrromethene (BODIPY)-labeled probe ligand was synthesized as described below.
Time-Resolved Fluorescence Resonance Energy Transfer (TR-FRET) Assay
All assays were conducted using 384-well, white, flat-bottomed plates (product #784075, Greiner Bio-One, Frickenhausen, Germany) in kinase assay buffer, which consists of 50 mM HEPES pH 7.6, 10 mM MgCl2, 1 mM EGTA, 0.01% Brig-35, 0.1 mM DTT). The fluorescent probe ligand was added at a final concentration of 300 nM to solutions containing 0.21 nM Tb-anti-GST Ab, 1 mM CaCl2, 10 μg/mL calmodulin, and 0.5 nM GST-tagged CaMKIIδ. After shaded incubation of the protein-probe mixture on ice for 30 min, the premix was dispensed in the assay plate including test inhibitors with 4 fold dilution series of eight concentrations. After 1 hr incubation at room temperature, TR-FRET signals were measured in duplicate using an EnVision microplate reader (Perkin Elmer, Waltham, Mass., USA). The solution in each well was excited with a laser (λ=340 nm) reflected by a dichroic mirror (D400/D505 (Perkin Elmer) through an excitation filter (UV (TRF) 340, (Perkin Elmer)), and fluorescence from Tb and BODIPY were detected through two emission filters (CFP 495 (Perkin Elmer) for Tb, Emission 520 (Perkin Elmer) for BODIPY).
The percentage of inhibition of test compounds was calculated according to equation (1) Inhibition(%)=100×(μH−T)/(μH−μL) (1)
Where T is the value of the wells containing test compounds and μH and μL are the mean values of the 0% and 100% inhibition control wells, respectively. The values of the 0 and 100% controls were the signals obtained in the absence and presence of 3 μM its parent compound, respectively. The half maximal inhibitory concentration (IC50) of test compounds was calculated by fitting the data with the logistic equation using XLfit (IDBS, Guildford, UK). The IC50 was classified according to the following activity ranks.

| SMILES | IC50 [nM] |
| --- | --- |
| C[C@@H]1CN([C@H]2CC[C@H](n3cc(Nc4ncc(-c5ccc(C#N)c(O[C@@H](C)Cn6cnnn6)c5)cn4)c(OCC4CCOCC4)n3)CC2)C[C@H](C)O1 [Example 483, 2-(((S)-1-(1H-tetrazol-1-yl)propan-2-yl)oxy)-4-(2-((1-((1r,4r)-4-((2S,6R)-2,6-dimethylmorpholino)cyclohexyl)-3-((tetrahydro-2H-pyran-4-yl)methoxy)-1H-pyrazol-4-yl)amino)pyrimidin-5-yl)benzonitrile] | < 10 |
| COCCOCCCOc1nn([C@H]2CC[C@H](N3CCOCC3)CC2)cc1Nc1ncc(-c2ccc(C#N)c(O[C@@H](C)Cn3cnnn3)c2)cn1 [Example 490, 2-(((S)-1-(1H-tetrazol-1-yl)propan-2-yl)oxy)-4-(2-((3-(3-(2-methoxyethoxy)propoxy)-1-((1r,4r)-4-morpholinocyclohexyl)-1H-pyrazol-4-yl)amino)pyrimidin-5-yl)benzonitrile] | < 10 |
| C[C@@H](Cn1cnnn1)Oc1cc(-c2cnc(Nc3cn([C@H]4CC[C@H](N5CCOCC5)CC4)nc3OCC3COC3)nc2)ccc1Cl [Example 491, 5-(3-(((S)-1-(1H-tetrazol-1-yl)propan-2-yl)oxy)-4-chlorophenyl)-N-(1-((1r,4r)-4-morpholinocyclohexyl)-3-(oxetan-3-ylmethoxy)-1H-pyrazol-4-yl)pyrimidin-2-amine] | < 10 |
| C[C@@H](Cn1cnnn1)Oc1cc(-c2cnc(Nc3cn([C@H]4CC[C@H](N5CCOCC5)CC4)nc3OCC3COC3)nc2)ccc1C#N [Example 492, 2-(((S)-1-(1H-tetrazol-1-yl)propan-2-yl)oxy)-4-(2-((1-((1r,4r)-4-morpholinocyclohexyl)-3-(oxetan-3-ylmethoxy)-1H-pyrazol-4-yl)amino)pyrimidin-5-yl)benzonitrile] | < 10 |
| C[C@@H](Cn1cnnn1)Oc1cc(-c2cnc(Nc3cn([C@H]4CC[C@H](N5CCOCC5)CC4)nc3OCCCC#N)nc2)ccc1Cl [Example 493, 4-((4-((5-(3-(((S)-1-(1H-tetrazol-1-yl)propan-2-yl)oxy)-4-chlorophenyl)pyrimidin-2-yl)amino)-1-((1r,4r)-4-morpholinocyclohexyl)-1H-pyrazol-3-yl)oxy)butanenitrile] | < 10 |
| C[C@@H](Cn1cnnn1)Oc1cc(-c2cnc(Nc3cn([C@H]4CC[C@H](N5CCOCC5)CC4)nc3OCCCC#N)nc2)ccc1C#N [Example 494, 2-(((S)-1-(1H-tetrazol-1-yl)propan-2-yl)oxy)-4-(2-((3-(3-cyanopropoxy)-1-((1r,4r)-4-morpholinocyclohexyl)-1H-pyrazol-4-yl)amino)pyrimidin-5-yl)benzonitrile] | < 10 |
| C[C@@H](Cn1cnnn1)Oc1cc(-c2cnc(Nc3cn([C@H]4CC[C@H](N5CCOCC5)CC4)nc3OCCC(C)(C)O)nc2)ccc1C#N [Example 495, 2-(((S)-1-(1H-tetrazol-1-yl)propan-2-yl)oxy)-4-(2-((3-(3-hydroxy-3-methylbutoxy)-1-((1r,4r)-4-morpholinocyclohexyl)-1H-pyrazol-4-yl)amino)pyrimidin-5-yl)benzonitrile] | < 10 |
| COC(C)(C)CCOc1nn([C@H]2CC[C@H](N3CCOCC3)CC2)cc1Nc1ncc(-c2ccc(C#N)c(O[C@@H](C)Cn3cnnn3)c2)cn1 [Example 496, 2-(((S)-1-(1H-tetrazol-1-yl)propan-2-yl)oxy)-4-(2-((3-(3-methoxy-3-methylbutoxy)-1-((1r,4r)-4-morpholinocyclohexyl)-1H-pyrazol-4-yl)amino)pyrimidin-5-yl)benzonitrile] | < 10 |
| C[C@@H](Cn1cnnn1)Oc1cc(-c2cnc(Nc3cn([C@H]4CC[C@H](N5CCOCC5)CC4)nc3OCC3CCOCC3)nc2)ccc1Cl [Example 497, 5-(3-(((S)-1-(1H-tetrazol-1-yl)propan-2-yl)oxy)-4-chlorophenyl)-N-(1-((1r,4r)-4-morpholinocyclohexyl)-3-((tetrahydro-2H-pyran-4-yl)methoxy)-1H-pyrazol-4-yl)pyrimidin-2-amine] | < 10 |
| C[C@@H](Cn1cnnn1)Oc1cc(-c2cnc(Nc3cn([C@H]4CC[C@H](N5CCOCC5)CC4)nc3OCC3CCOC3)nc2)ccc1Cl (stereo partly drawn) [Example 498, 5-(3-(((S)-1-(1H-tetrazol-1-yl)propan-2-yl)oxy)-4-chlorophenyl)-N-(1-((1r,4r)-4-morpholinocyclohexyl)-3-((tetrahydrofuran-3-yl)methoxy)-1H-pyrazol-4-yl)pyrimidin-2-amine] | < 10 |
| C[C@@H](Cn1cnnn1)Oc1cc(-c2cnc(Nc3cn([C@H]4CC[C@H](N5CCOCC5)CC4)nc3OCC3CCCOC3)nc2)ccc1Cl (stereo partly drawn) [Example 499, 5-(3-(((S)-1-(1H-tetrazol-1-yl)propan-2-yl)oxy)-4-chlorophenyl)-N-(1-((1r,4r)-4-morpholinocyclohexyl)-3-((tetrahydro-2H-pyran-3-yl)methoxy)-1H-pyrazol-4-yl)pyrimidin-2-amine] | < 10 |
| C[C@@H](Cn1cnnn1)Oc1cc(-c2cnc(Nc3cn([C@H]4CC[C@H](N5CCOCC5)CC4)nc3OCCC(C)(C)O)nc2)ccc1Cl [Example 500, 4-((4-((5-(3-(((S)-1-(1H-tetrazol-1-yl)propan-2-yl)oxy)-4-chlorophenyl)pyrimidin-2-yl)amino)-1-((1r,4r)-4-morpholinocyclohexyl)-1H-pyrazol-3-yl)oxy)-2-methylbutan-2-ol] | < 10 |
| C[C@@H](Cn1cnnn1)Oc1cc(-c2cnc(Nc3cn([C@H]4CC[C@H](N5CCOCC5)CC4)nc3OCc3cncs3)nc2)ccc1Cl [Example 501, 5-(3-(((S)-1-(1H-tetrazol-1-yl)propan-2-yl)oxy)-4-chlorophenyl)-N-(1-((1r,4r)-4-morpholinocyclohexyl)-3-(thiazol-5-ylmethoxy)-1H-pyrazol-4-yl)pyrimidin-2-amine] | < 10 |
| C[C@@H](Cn1cnnn1)Oc1cc(-c2cnc(Nc3cn([C@H]4CC[C@H](N5CCOCC5)CC4)nc3OCc3ccnn3C)nc2)ccc1Cl [Example 502, 5-(3-(((S)-1-(1H-tetrazol-1-yl)propan-2-yl)oxy)-4-chlorophenyl)-N-(3-((1-methyl-1H-pyrazol-5-yl)methoxy)-1-((1r,4r)-4-morpholinocyclohexyl)-1H-pyrazol-4-yl)pyrimidin-2-amine] | < 10 |
| C[C@@H](Cn1cnnn1)Oc1cc(-c2cnc(Nc3cn([C@H]4CC[C@H](N5CCOCC5)CC4)nc3OCc3ncco3)nc2)ccc1Cl [Example 503, 5-(3-(((S)-1-(1H-tetrazol-1-yl)propan-2-yl)oxy)-4-chlorophenyl)-N-(1-((1r,4r)-4-morpholinocyclohexyl)-3-(oxazol-2-ylmethoxy)-1H-pyrazol-4-yl)pyrimidin-2-amine] | < 10 |
| C[C@@H](Cn1cnnn1)Oc1cc(-c2cnc(Nc3cn([C@H]4CC[C@H](N5CCOCC5)CC4)nc3OCc3nccs3)nc2)ccc1Cl [Example 504, 5-(3-(((S)-1-(1H-tetrazol-1-yl)propan-2-yl)oxy)-4-chlorophenyl)-N-(1-((1r,4r)-4-morpholinocyclohexyl)-3-(thiazol-2-ylmethoxy)-1H-pyrazol-4-yl)pyrimidin-2-amine] | < 10 |
| C[C@@H](Cn1cnnn1)Oc1cc(-c2cnc(Nc3cn(C4CCC(N5CCOCC5)CC4)nc3OCc3ccnn3C)nc2)ccc1Cl (stereo partly drawn) [Example 505, 5-(3-(((S)-1-(1H-tetrazol-1-yl)propan-2-yl)oxy)-4-chlorophenyl)-N-(3-((1-methyl-1H-pyrazol-5-yl)methoxy)-1-((1r,4r)-4-morpholinocyclohexyl)-1H-pyrazol-4-yl)pyrimidin-2-amine] | < 10 |
| Cc1noc(C)c1COc1nn([C@H]2CC[C@H](N3CCOCC3)CC2)cc1Nc1ncc(-c2ccc(Cl)c(O[C@@H](C)Cn3cnnn3)c2)cn1 [Example 506, 5-(3-(((S)-1-(1H-tetrazol-1-yl)propan-2-yl)oxy)-4-chlorophenyl)-N-(3-((3,5-dimethylisoxazol-4-yl)methoxy)-1-((1r,4r)-4-morpholinocyclohexyl)-1H-pyrazol-4-yl)pyrimidin-2-amine] | < 10 |
| C[C@@H](Cn1cnnn1)Oc1cc(-c2cnc(Nc3cn([C@H]4CC[C@H](N5CCOCC5)CC4)nc3OCCn3ccnc3)nc2)ccc1Cl [Example 507, N-(3-(2-(1H-imidazol-1-yl)ethoxy)-1-((1r,4r)-4-morpholinocyclohexyl)-1H-pyrazol-4-yl)-5-(3-(((S)-1-(1H-tetrazol-1-yl)propan-2-yl)oxy)-4-chlorophenyl)pyrimidin-2-amine] | < 10 |
